Results on eleven compounds are retold here after US12448388B2, “PRMT5 inhibitors and uses thereof” (Gilead Sciences, Inc., priority 2023, dated 2025).

In data set [1] the test system is HCT116 MTAP-deleted cell lines. Nature of the data set: Cell viability assay (CellTiter-Glo, 7 days), HCT116 MTAP-deleted. Type of data set: cell-based. Conditions: for Selectivity: HCT116 WT CC50 versus HCT116 MTAP^del CC50; for CC50: Homo sapiens, HCT116 MTAP-deleted; for plasma-adjusted CC50 (paCC50): paCC50 = CC50-HCT116-MTAP^del * (% free CCM/% free human plasma). In outline:
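First, compounds are serially diluted in DMSO and dispensed into plates, which are frozen until seeding. Next, cells are added and incubated 7 days at 37 °C, 5% CO2, 90% humidity. Finally, CellTiter-Glo reagent is added and luminescence is measured to derive CC50.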

The nature of data set [2]: MDR1/BCRP assay: permeability in cPgp-KO-MDCK-WT cells. Type of data set: in vitro ADME. As to conditions: dog, pH 7.4. Here is the method:
The cells were maintained in an incubator at 37° C., 90% humidity, and 5% CO2 until reaching confluence over 5 days in 96-well transwell plates. Experiments were conducted using an HBSS donor buffer (Invitrogen) containing 10 mM HEPES and 15 mM glucose, adjusted to pH 7.4. The receiver well contained HBSS buffer supplemented with 1% BSA, 10 mM HEPES, and 15 mM glucose, and the pH was adjusted to 7.4. TEER values were measured to assess membrane integrity after an initial equilibration with BSA-free transport buffer for 15 minutes. The experiment was started by adding dosing solutions containing test compounds at 1 μM. Cells were dosed on the apical (A) side or basolateral (B) side at 100 μl and 200 μl, respectively, to determine forward (A to B) and reverse (B to A) permeability. At the 2-hour time point, 50 μl samples were collected from the receiver compartment. Each compound was tested in 2 separate replicate wells for each condition. All samples were immediately collected into plates, and 50 μL of acetonitrile was added. Subsequently, 350 μl of 30:70 methanol: acetonitrile containing internal standard was added to precipitate proteins and stabilize the test compounds. To test for non-specific binding and compound instability, the total amount of the drug was quantified at the end of the experiment and compared to the material present in the original dosing solution as a percentage of the recovery. All samples were analyzed by LC-MS/MS using electrospray ionization.
The apparent permeability, Papp, and % recovery were calculated as follows: […]

Data set [3] in a line: Cell viability assay (CellTiter-Glo, 7 days), HCT116 WT. Type of data set: cell-based. As to conditions: human, HCT116 WT cells, 7 days of treatment, CTG. How it is done: Control compounds were analyzed in parallel each time for quality control. In Brief, on Day -1, a serial dilution of stock compounds in DMSO was performed using BioMek liquid handlers and dispensed using Echo acoustic dispenser into 384 well plates. Both tool compounds and sample compounds were spotted in the same plate for a dose response of PRMT5 inhibitors. Compound plates were stored as frozen until the cells were ready for seeding. […] After equilibrating the plate in room temperature, the cells were incubated for 7 days inside the sealed incubator set at 37° C. with 90% humidity and 5% CO2. On Day 7, the viability of cells was measured using a CTG assay kit (CellTitre-Glo;Promega cat no. G7573). Shortly, 40 μl per well of luminescent cell viability assay reagent were dispensed using EL460 liquid dispenser 5 μl cassette. CTG luminescence signal was measured using an EnVision plate reader (PerkinElmer) in accordance with manufacturer's instruction. […] Selectivity with * is artificially high due to limited solubility of the compound hampering accurate measurement of WT CC50.
A general note: Cellular ATP, detected with luciferase, serves as a proxy for viable cell number.

Data set [4] can be described thus: PBS solubility (kinetic solubility from DMSO stocks). Type of data set: physicochemical. Conditions: 22 °C, aqueous buffer, kinetic from dmso stock; 1x PBS pH 7.4, 1.0% DMSO, 24-hour incubation at ambient temperature. Here is the method: Buffer Preparation: 1×PBS, 7.4: Phosphate Buffered Saline solution 10×, PBS (Fisher Bioreagent, part number BP399-500) 50 mL was added to approximately 450 mL HPLC grade H2O. The volume of the solution was then adjusted to 500 mL for a total dilution factor of 1:10 and a final PBS concentration of 1×. The pH of the final solution was measured and found to be 7.4.
The final DMSO Concentration is 1.0% and maximum theoretical compound concentration is 100 μM (assuming stock concentration of 10 mM). The filter plate was sealed. Following 24-hour incubation at ambient temperature (20.8-24.0° C.), the samples were vacuum filtered, and the filtrates were collected in a 96 well polypropylene plate for analysis. The collection plate was sealed for analysis. Filtrates were injected into the nitrogen detector for quantification on Analiza's Automated Discovery Workstation. The results are reported here in both μM and μg/mL.
Calculation of Results: The equimolar nitrogen response of the detector is calibrated using standards which span the dynamic range of the instrument from 0.08 to 4500 μg/ml nitrogen. The filtrates were quantified with respect to this calibration curve. The calculated solubility values are corrected for background nitrogen present in the DMSO, and the media used to prepare the samples. All reported values for compounds containing adjacent nitrogen atoms in a ring structure should be increased by ˜25%. […] The solubility results presented assume that the samples were free of nitrogen containing impurities and are stable under the assay conditions.

Where [5] appears, read: HCT-116, 168 h, 7 days of treatment, CTG, read-out: CC50-HCT116-MTAP^del.
The mark [6] stands for this setting: HCT-116, cell viability, class symbols, read-out: CC50.

Molecules are shown by their SMILES. Values after ≈ are worked out from the molar mass of the structure shown. Read-outs that look alike come from different tables or passages of the source.

For orientation: CC50 means the concentration that lowers cell viability or growth by half. In general, Papp A→B refers to how fast a substance crosses the layer from the apical side. Low values mean slow passage, high ones fast passage. A word on the solubility: it is the dissolved amount per volume that the medium holds. Low readings indicate little dissolved substance, high ones much dissolved substance.

Regarding `Cc1ncc2c(N)nc3ccc(C(=O)N4CCC[C@@H]5Oc6cc(C(F)(F)F)ccc6[C@@H]54)cc3n12` [Ff-345, (4-amino-1-methylimidazo[1,5-a]quinoxalin-8-yl)((4aS,9bS)-7-(trifluoromethyl)-3,4,4a,9b-tetrahydrobenzofuro[3,2-b]pyridin-1(2H)-yl)methanone], the Selectivity in data set [1] was determined as 113. Further, the values for the CC50 in data set [1] (setting [5]) and in data set [1] (setting [6]) were 32 nM and less than 100 nM, respectively. Moreover, in data set [2], the Papp A→B at 2 h, 1 µM came to 10.2 ×10⁻⁶ cm/s. Further, in data set [3], the CC50 at 7 days was 3620 nM. The solubility at 24 h in data set [4] is less than 1 µM.
`Cc1ncc2c(N)nc3cc(F)c(C(=O)N4CCC[C@@H]5Oc6nc(C(F)(F)F)ccc6[C@@H]54)cc3n12` [Ff-363, (4-amino-7-fluoro-1-methylimidazo[1,5-a]quinoxalin-8-yl)((4aS,9bS)-7-(trifluoromethyl)-3,4,4a,9b-tetrahydrofuro[2,3-b:4,5-b′]dipyridin-1(2H)-yl)methanone] returned a Selectivity in data set [1] of 127. For the same compound, the plasma-adjusted CC50 (paCC50) in data set [1] (HCT-116) worked out at 196 nM. The CC50 in data set [1] (setting [5]) is 16 nM; in data set [1] (setting [6]), less than 100 nM. This compound also showed a Papp A→B at 2 h, 1 µM in data set [2] of 13.4 ×10⁻⁶ cm/s. Also, in data set [3], the CC50 at 7 days was determined as 2040 nM. In data set [4], this compound gave a solubility at 24 h of 21.8 µM (≈ 10.6 µg/mL).
Take `Nc1nc2cc(F)c(C(=O)N3CCC[C@@H]4Oc5cc(OC(F)(F)F)cc(F)c5[C@@H]43)cc2n2cncc12` [Fg-68, (4-amino-7-fluoroimidazo[1,5-a]quinoxalin-8-yl)((4aS,9bS)-9-fluoro-7-(trifluoromethoxy)-3,4,4a,9b-tetrahydrobenzofuro[3,2-b]pyridin-1(2H)-yl)methanone]: in data set [1], the Selectivity is given as 89. The plasma-adjusted CC50 (paCC50) in data set [1] (HCT-116) is 130 nM. Also, the CC50 in data set [1] (setting [5]) amounted to 8 nM. In data set [3], it took 708 nM to reach half-maximal cytotoxicity (CC50 at 7 days). Moreover, the solubility at 24 h in data set [4] is less than 1 µM.
The compound `Cc1ncc2c(N)nc3cnc(C(=O)N4CC[C@H]5C[C@@H]4c4ccc(OC(F)(F)F)cc4O5)cc3n12` [Ff-698, (4-amino-1-methylimidazo[1,5-a]pyrido[3,4-e]pyrazin-8-yl)((2S,6R)-9-(trifluoromethoxy)-3,4-dihydro-2H-2,6-methanobenzo[b][1,5]oxazocin-5(6H)-yl)methanone] returned a Selectivity in data set [1] of 96. Moreover, the plasma-adjusted CC50 (paCC50) in data set [1] (HCT-116) is 295 nM. In addition, the CC50 in data set [1] (setting [5]) worked out at 15 nM. The same compound displayed a Papp A→B at 2 h, 1 µM in data set [2] of 11.4 ×10⁻⁶ cm/s. Further, in data set [3], the CC50 at 7 days was 1440 nM. In data set [4], this compound yielded a solubility at 24 h of less than 1 µM.
`Nc1nc2cnc(C(=O)N3CCC[C@@H]4Oc5cc(C(F)(F)F)c(F)cc5[C@@H]43)cc2n2cncc12` [Ff-115, (4-aminoimidazo[1,5-a]pyrido[3,4-e]pyrazin-8-yl)((4aS,9bS)-8-fluoro-7-(trifluoromethyl)-3,4,4a,9b-tetrahydrobenzofuro[3,2-b]pyridin-1(2H)-yl)methanone] came in with a Selectivity in data set [1] of 48. The plasma-adjusted CC50 (paCC50) in data set [1] (HCT-116) was 202 nM. The CC50 is 10 nM in data set [1] (setting [5]) and less than 100 nM in data set [1] (setting [6]). Further, the Papp A→B at 2 h, 1 µM in data set [2] came to 7.6 ×10⁻⁶ cm/s. In data set [3], this compound showed a CC50 at 7 days of 478 nM. Also, the solubility at 24 h in data set [4] is less than 1 µM.
On to `Nc1nc2cnc(C(=O)N3CC[C@H]4C[C@@H]3c3c(F)cc(OC(F)(F)F)cc3O4)cc2n2cncc12` (single isomer, unassigned) [Ff-692], for which the Selectivity in data set [1] was determined as 69. The compound also had a plasma-adjusted CC50 (paCC50) in data set [1] (HCT-116) of 139 nM. Besides, the CC50 in data set [1] (setting [5]) was 14 nM. In data set [3], half-maximal cytotoxicity (CC50 at 7 days) was put at 969 nM. The same compound registered a solubility at 24 h in data set [4] of 18.6 µM (≈ 9.08 µg/mL).
Consider `N#Cc1cc2nc(N)c3cncn3c2cc1C(=O)N1CCC[C@@H]2Oc3cc(C(F)(F)F)ccc3[C@@H]21` [Ff-346, 4-amino-8-((4aS,9bS)-7-(trifluoromethyl)-1,2,3,4,4a,9b-hexahydrobenzofuro[3,2-b]pyridine-1-carbonyl)imidazo[1,5-a]quinoxaline-7-carbonitrile], for which the Selectivity in data set [1] is given as 51. Further, in data set [1] (HCT-116), the plasma-adjusted CC50 (paCC50) was 155 nM. The CC50 in data set [1] (setting [5]) is 6 nM; in data set [1] (setting [6]), less than 100 nM. In addition, in data set [2], the apical-to-basolateral permeability (Papp A→B) at 2 h, 1 µM was 10.8 ×10⁻⁶ cm/s. In data set [3], this compound gave a CC50 at 7 days of 305 nM. This compound also showed a solubility at 24 h in data set [4] of 4.2 µM (≈ 2.01 µg/mL).
As to `Cc1ncc2c(N)nc3cnc(C(=O)N4CC[C@H]5C[C@@H]4c4ccc(C(F)(F)F)c(F)c4O5)cc3n12` [Ff-699, (4-amino-1-methylimidazo[1,5-a]pyrido[3,4-e]pyrazin-8-yl)((2S,6R)-10-fluoro-9-(trifluoromethyl)-3,4-dihydro-2H-2,6-methanobenzo[b][1,5]oxazocin-5(6H)-yl)methanone], the Selectivity in data set [1] is on record as 74. Also, the plasma-adjusted CC50 (paCC50) in data set [1] (HCT-116) was 237 nM. Moreover, in data set [1] (setting [5]), the CC50 worked out at 15 nM. In addition, in data set [2], the Papp A→B at 2 h, 1 µM stood at 10.9 ×10⁻⁶ cm/s. This compound also displayed a CC50 at 7 days in data set [3] of 1110 nM. The compound further registered a solubility at 24 h in data set [4] of 2.6 µM (≈ 1.26 µg/mL).
With `Nc1nc2cc(F)c(C(=O)N3CCO[C@@H]4Cc5cc(OC(F)F)c(F)cc5[C@@H]43)cc2n2cncc12` [Ff-174, (4-amino-7-fluoroimidazo[1,5-a]quinoxalin-8-yl)((4aS,9aR)-7-(difluoromethoxy)-6-fluoro-2,3,9,9a-tetrahydroindeno[2,1-b][1,4]oxazin-4(4aH)-yl)methanone], the Selectivity in data set [1] is listed as 63. Further, the results for the cytotoxic concentration (CC50) in data set [1] (setting [5]) and in data set [1] (setting [6]) were 36 nM and less than 100 nM, respectively. This compound came in with a Papp A→B at 2 h, 1 µM in data set [2] of 17.8 ×10⁻⁶ cm/s. In data set [3], this compound yielded a CC50 at 7 days of 2280 nM. In data set [4], this compound gave a solubility at 24 h of less than 1 µM.
Take `Nc1nc2cnc(C(=O)N3C[C@H](F)CC4Oc5cc(C(F)(F)F)ccc5[C@@H]43)cc2n2cncc12` (mixture of isomers) [Ff-113, Rac-(4-aminoimidazo[1,5-a]pyrido[3,4-e]pyrazin-8-yl)((3R,4aS,9bS)-3-fluoro-7-(trifluoromethyl)-3,4,4a,9b-tetrahydrobenzofuro[3,2-b]pyridin-1(2H)-yl)methanone]: the Selectivity in data set [1] turned out to be 86. Also, the CC50 is 30 nM in data set [1] (setting [5]) and less than 100 nM in data set [1] (setting [6]). In data set [2], the Papp A→B at 2 h, 1 µM stood at 12.3 ×10⁻⁶ cm/s. The compound also yielded a CC50 at 7 days in data set [3] of 2570 nM. The same compound had a solubility at 24 h in data set [4] of 1.1 µM (≈ 0.52 µg/mL).
Compound `Cc1ncn2c1c(N)nc1cc(F)c(C(=O)N3CCCC[C@@H]3c3ccc(S(F)(F)(F)(F)F)cc3)cc12` [Ff-402, (R)-(4-amino-7-fluoro-3-methylimidazo[1,5-a]quinoxalin-8-yl)(2-(4-(pentafluoro-16-sulfaneyl)phenyl)piperidin-1-yl)methanone] returned a Selectivity in data set [1] of 84. In data set [1] (HCT-116), this compound returned a plasma-adjusted CC50 (paCC50) of 40 nM. The CC50 in data set [1] (setting [5]) was 30 nM; in data set [1] (HCT-116, cell viability assay, class symbols, read-out: CC50), less than 100 nM. In data set [3], this compound had a CC50 at 7 days of 2520 nM. The same compound displayed a solubility at 24 h in data set [4] of 18.3 µM (≈ 9.69 µg/mL).
